Experimental data as given in BindingDB's records for doi:10.1016/j.ejmech.2014.11.002 (Universitat Rovira I Virgili, 2015).

Tests used:
[1] = target: Cytosolic beta-glucosidase (Bos taurus); assay: Inhibition of bovine liver beta-glucosidase at pH 5.5 incubated for 10 to 30 mins using beta-D-glycopyranoside substrate by spectrophotometry
[2] = target: Cytosolic beta-glucosidase (Bos taurus); assay: Inhibition of bovine liver beta-glucosidase at pH 7.3 incubated for 10 to 30 mins using beta-D-glycopyranoside substrate by spectrophotometry

OC[C@H]1O[C@@H]2N=C(SCCCCCCCCCCCCCCCCF)O[C@@H]2[C@@H](O)[C@@H]1O
Ki [1]: 66 µM | Ki [2]: 11.1 µM

COC(=O)CCCCCCCCCCCCCCCSC1=N[C@H]2O[C@H](CO)[C@@H](O)[C@H](O)[C@H]2O1
Ki [1]: 45 µM | Ki [2]: 26.4 µM
